As a reminder, the bioavailability is dose-corrected exposure relative to a reference, in per cent.

The test system of one data set is P-gp. As to conditions: ref Ruike et al., 2010; cited from earlier work.
Data set [1] in a line: PK studies in beagle dogs. In kind it is in vivo. As to conditions: dog, in vivo; beagle dogs, same dose (2 mg/kg); prior preliminary experiment by the team, unpublished results; read-out: absolute bioavailability. As to the method:
For the PK studies in rats and dogs, a total of 18 SD rats and 15 male beagle dogs were randomly divided into three groups, with six rats or five dogs per group, respectively. Prior to the experiments, all animals underwent a 12-h fasting period, while having free access to water. The animals were administered single oral doses of ammoxetine in three different dose levels: 8 mg/kg, 20 mg/kg, and 50 mg/kg for rats, and 2 mg/kg, 5 mg/kg, and 12.5 mg/kg for dogs, representing low, medium, and high doses. Serial blood samples were collected from the rats at 0, 2, 5, 15, and 30 min, as well as 1, 2, 4, 6, 8, 12, and 24 h post-dosing. For the dogs, blood samples were collected at 0, 5, 15, 30, and 45 min, as well as 1, 2, 4, 6, 8, 12, and 24 h post-dosing. Approximately 0.3 mL of blood was collected from the rats, while 2 mL of blood was collected from the dogs. The blood samples were collected into heparinized tubes. Following centrifugation, plasma samples were obtained and stored at −30°C until further analysis.
For the absolute bioavailability (F, %) study in dogs, the dogs initially received a single gastric gavage of a low dose (2 mg/kg) of ammoxetine, followed by a 1-week washout period. After the washout, the same dose of ammoxetine was administered intravenously (i.v.). To assess the effects of nonfasting on ammoxetine PK, dogs that received a medium dose (5 mg/kg) of ammoxetine via gastric gavage underwent a radical washout period of 1 week. Subsequently, they were administered the same dose of ammoxetine via gastric gavage under nonfasting conditions. To compare sex differences in ammoxetine PK, an additional five female beagle dogs were administered a medium dose (5 mg/kg) of ammoxetine via gastric gavage after a 12-h overnight fast. Blood samples (2 mL) were collected from these dogs into heparinized tubes at predose and at specified time points: 5, 15, 30, and 45 min, as well as 1, 2, 4, 6, 8, 12, and 24 h postdose. For the repeat-dose study, after completing blood collection during the initial administration, dogs receiving a single gastric gavage of a medium dose (5 mg/kg) of ammoxetine under fasting conditions were subsequently orally dosed with seven repeat doses of ammoxetine (5 mg/kg) every 12 h. Trough blood samples were collected before the fourth to last administration to ensure steady-state blood concentrations (C ss ) were achieved. Approximately 2 mL of blood was collected at specified time points after the last dose and transferred into heparinized tubes. All blood samples were then centrifuged at 4,000 r/min for 20 min to obtain plasma samples, which were stored at −30°C until analysis.
To determine the concentration of ammoxetine, 100 μL of L-phencynonate (IS, 50 ng/mL) and 300 μL of methanol were added to 100 μL of plasma samples from rats or dogs. After thorough vortexing, the mixture was centrifuged at 13,800×g for 10 min. The supernatants were then subjected to analysis using LC-MS-MS methods. PK parameters were calculated using DAS (Drug And Statistics for Windows) version 2.0, developed by the Shanghai University of Traditional Chinese Medicine, Shanghai, China. The F was determined by comparing the plasma area under the concentration-time curve (AUC) values after oral (p.o.) and intravenous (i.v.) administration of ammoxetine. F was calculated using the formula: F=AUCp.o./AUCi.v.×100% . Statistical analyses were performed using OriginPro 8.6 software. Paired sample or student’s t-test, as well as one-way ANOVA, were employed to compare the means of two or three groups, with a significance level set at p < 0.05.

As for `CNCC[C@H](Oc1cccc2ccccc12)c1cccs1` [duloxetine, reference compound], the “action on P-gp” value in the data set with P-gp is reported as “P-gp inhibitor”. Besides, the bioavailability in data set [1] is ~33%.
